Consider 27 compounds from US9624229B2, “Pyrimidine-2-amine compounds and their use as inhibitors of JAK kinases” (Rigel Pharmaceuticals, Inc., priority 2008, dated 2017).

Chain of Ba/F3 V617F cells (O60674 whole entry V617F): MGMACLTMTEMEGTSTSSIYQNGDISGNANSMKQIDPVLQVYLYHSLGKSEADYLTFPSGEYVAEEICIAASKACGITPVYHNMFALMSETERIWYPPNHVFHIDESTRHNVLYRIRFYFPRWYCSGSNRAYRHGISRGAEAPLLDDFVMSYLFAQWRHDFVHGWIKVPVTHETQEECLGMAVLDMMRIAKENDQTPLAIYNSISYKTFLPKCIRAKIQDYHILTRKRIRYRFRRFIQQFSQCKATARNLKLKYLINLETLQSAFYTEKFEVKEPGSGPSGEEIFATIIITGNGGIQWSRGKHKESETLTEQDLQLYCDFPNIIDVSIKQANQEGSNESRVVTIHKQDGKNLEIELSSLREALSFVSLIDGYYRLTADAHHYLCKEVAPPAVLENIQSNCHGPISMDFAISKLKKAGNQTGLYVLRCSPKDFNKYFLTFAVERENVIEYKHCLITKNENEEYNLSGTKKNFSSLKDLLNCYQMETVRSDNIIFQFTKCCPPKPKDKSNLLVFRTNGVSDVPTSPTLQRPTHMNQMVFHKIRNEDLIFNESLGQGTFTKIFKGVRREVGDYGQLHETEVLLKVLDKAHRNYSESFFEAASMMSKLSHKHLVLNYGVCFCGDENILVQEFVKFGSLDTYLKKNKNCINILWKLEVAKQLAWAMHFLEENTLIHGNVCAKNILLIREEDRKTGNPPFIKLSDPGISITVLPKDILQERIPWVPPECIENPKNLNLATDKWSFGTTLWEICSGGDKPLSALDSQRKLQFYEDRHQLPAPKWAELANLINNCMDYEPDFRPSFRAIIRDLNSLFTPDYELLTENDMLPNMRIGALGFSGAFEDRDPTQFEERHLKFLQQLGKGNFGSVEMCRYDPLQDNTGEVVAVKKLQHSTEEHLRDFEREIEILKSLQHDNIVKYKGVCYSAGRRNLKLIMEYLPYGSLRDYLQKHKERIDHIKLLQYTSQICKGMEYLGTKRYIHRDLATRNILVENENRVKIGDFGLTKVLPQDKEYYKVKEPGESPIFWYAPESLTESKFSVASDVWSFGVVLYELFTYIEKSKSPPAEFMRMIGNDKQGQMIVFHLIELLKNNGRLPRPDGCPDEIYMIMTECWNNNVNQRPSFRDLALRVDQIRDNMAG

One assay addresses Ba/F3 V617F cells (Homo sapiens, UniProt O60674, V617F, cells depend on it). Description: Proliferation assay (Cell Titer-Glo, 72 h) utilizing Ba/F3 V617F cells. It is filed as cell-based, mouse. The settings on record: Ba/F3 V617F cells, proliferation, level of activity given as class symbol, read-out: IC50 (the source's name). The gist of the method:
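Readout is CellTiter-Glo luminescence after 72 h at 37 °C, giving IC50. Cells: Ba/F3 V617F, 1×10^5 cells/mL in RPMI with 10% FBS, treated in duplicate with 3-fold dilution series made from 5 mM DMSO stock, 1:250 in 5% FBS medium, added at 2×.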
For the compound `COCCN(C)c1ccc(-c2ccnc(Nc3ccc(N4C[C@@H]5C[C@H]4CN5C)c(C)c3)n2)cn1` [compound 219, 4-(6-(2-methoxyethyl)(methyl)aminopyridin-3-yl)-N-(3-methyl-4-((1S,4S)-5-methyl-2,5-diazabicyclo[2.2.1]heptan-2-yl)phenyl)pyrimidin-2-amine], the GI50 is below 1 µM.

As for `Cc1cc(Nc2nccc(-c3cnc4c(c3)OC(C)(C)C(=O)N4)n2)ccc1N1CCN2CCC1C2` (stereo not drawn) [compound 252, 4-(2,2-dimethyl-3-oxo-3,4-dihydro-2H-pyrido[3,2-b][1,4]oxazin-7-yl)-N-(3-methyl-4-(1,4-diazabicyclo[3.2.1]octan-4-yl)phenyl)pyrimidin-2-amine], the GI50 is below 1 µM.

Turning to `Cc1cc(Nc2nccc(-c3ccc(N4CCOCC4)nc3)n2)ccc1N1C2CCC1CC(N1CCOCC1)C2` (stereo not drawn) [compound 284, 4-(6-(morpholin-4-yl)pyridin-3-yl)-N-(3-methyl-4-(3-(morpholin-4-yl)-8-azabicyclo[3.2.1]octan-8-yl)phenyl)pyrimidin-2-amine], the GI50 is below 1 µM.

`Cc1cc(Nc2nccc(-c3ccc(OC4CCOCC4)nc3)n2)ccc1N1C2CCC1CC(N1CCOCC1)C2` (stereo not drawn) [compound 285, 4-(6-(tetrahydropyran-4-yloxy)pyridin-3-yl)-N-(3-methyl-4-(3-(morpholin-4-yl)-8-azabicyclo[3.2.1]octan-8-yl)phenyl)pyrimidin-2-amine]: the GI50 was below 1 µM.

On to `CC1(C)Oc2cc(-c3ccnc(Nc4ccc(C5CC6CC5CN6S(C)(=O)=O)cc4)n3)cnc2NC1=O` (stereo not drawn) [compound 226, 4-(2,2-dimethyl-3-oxo-3,4-dihydro-2H-pyrido[3,2-b][1,4]oxazin-7-yl)-N-(4-(2-methylsulfonyl-2-azabicyclo[2.2.1]heptan-5-yl)phenyl)pyrimidin-2-amine], for which the GI50 was 1 to 10 µM.

In the case of `CS(=O)(=O)N1C[C@@H]2C[C@H]1CN2c1ccc(Nc2nccc(-c3ccc(OC4CCOCC4)nc3)n2)cc1Cl` [compound 258, 4-(6-(tetrahydropyran-4-yloxy)pyridin-3-yl)-N-(3-chloro-4-((1S,4S)-5-(methylsulfonyl)-2,5-diazabicyclo[2.2.1]heptan-2-yl)phenyl)pyrimidin-2-amine], the GI50 lay in the range of 1 to 10 µM.

As to `CS(=O)(=O)N1CC2CC1CC2c1ccc(Nc2nccc(-c3ccc(N4CCOCC4)nc3)n2)cc1` (stereo not drawn) [compound 227, 4-(6-(morpholin-4-yl)pyridin-3-yl)-N-(4-(2-methylsulfonyl-2-azabicyclo[2.2.1]heptan-5-yl)phenyl)pyrimidin-2-amine], the GI50 was below 1 µM.

In the case of `Cc1cc(Nc2nccc(-c3ccc(N4C[C@@H]5C[C@H]4CO5)nc3)n2)ccc1N1C[C@@H]2C[C@H]1CN2S(C)(=O)=O` [compound 264, 4-(6-((1S,4S)-2-oxa-5-azabicyclo[2.2.1]heptan-5-yl)pyridin-3-yl)-N-(3-methyl-4-((1S,4S)-5-(methylsulfonyl)-2,5-diazabicyclo[2.2.1]heptan-2-yl)phenyl)pyrimidin-2-amine], the GI50 was below 1 µM.

On to `CN1C[C@@H]2C[C@H]1CN2c1ccc(Nc2nccc(-c3ccc4c(c3)SCC(=O)N4)n2)cc1C#N` [compound 273, 4-(3-oxo-3,4-dihydro-2H-benzo[b][1,4]thiazin-7-yl)-N-(3-cyano-4-((1S,4S)-5-methyl-2,5-diazabicyclo[2.2.1]heptan-2-yl)phenyl)pyrimidin-2-amine], for which the GI50 was below 1 µM.

Still in this assay, the particulars now being: Ba/F3 V617F cells, proliferation, level of activity to inhibit JAK2, read-out: IC50 (the source's name).
Regarding `Cc1cc(Nc2nccc(-c3ccc(N(C)C)nc3)n2)ccc1N1CC2(C)CN(C)CC(C)(C1)C2` [compound 76, 4-(6-(dimethylamino)pyridin-3-yl)-N-(3-methyl-4-(1,5,7-trimethyl-3,7-diazabicyclo[3.3.1]nonan-3-yl)phenyl)pyrimidin-2-amine], the GI50 is below 1 µM.

Take `Cc1cc(Nc2nccc(-c3ccc(NC(=O)CN4CCOCC4)nc3)n2)ccc1N1C[C@@H]2C[C@H]1CN2C` [compound 141, 4-(6-(2-(morpholin-4-yl)acetamido)pyridin-3-yl)-N-(3-methyl-4-((1S,4S)-5-methyl-2,5-diazabicyclo[2.2.1]heptan-2-yl)phenyl)pyrimidin-2-amine]: the GI50 was below 1 µM.

In the case of `Cc1cc(Nc2nccc(-c3cncc(S(C)(=O)=O)c3)n2)ccc1N1C[C@@H]2C[C@H]1CN2C` [compound 95, 4-(5-(methyl)sulfonylpyridin-3-yl)-N-(3-methyl-4-((1S,4S)-5-methyl-2,5-diazabicyclo[2.2.1]heptan-2-yl)phenyl)pyrimidin-2-amine], the GI50 is below 1 µM.

Consider `Cc1cc(Nc2nccc(-c3cnc4c(c3)OC(C)(C)C(=O)N4)n2)ccc1N1C[C@@H]2C[C@H]1CO2` [compound 27, 4-(2,2-dimethyl-3-oxo-3,4-dihydro-2H-pyrido[3,2-b][1,4]oxazin-7-yl)-N-(3-methyl-4-((1S,4S)-5-oxa-2-azabicyclo[2.2.1]heptan-2-yl)phenyl)pyrimidin-2-amine], for which the GI50 is below 1 µM.

For the compound `Cc1cc(Nc2nccc(-c3ccc(NC4CCCCC4)nc3)n2)ccc1N1CC2(C)CN(C)CC(C)(C1)C2` [compound 77, 4-(6-(cyclohexylamino)pyridin-3-yl)-N-(3-methyl-4-(1,5,7-trimethyl-3,7-diazabicyclo[3.3.1]nonan-3-yl)phenyl)pyrimidin-2-amine], the GI50 is below 1 µM.

Consider `CN1C[C@@H]2C[C@H]1CN2c1ccc(Nc2nccc(-c3cnc(N4CCOCC4)nc3)n2)cc1F` [compound 43, 4-(2-(morpholin-4-yl)pyrimidin-5-yl)-N-(3-fluoro-4-((1S,4S)-5-methyl-2,5-diazabicyclo[2.2.1]heptan-2-yl)phenyl)pyrimidin-2-amine], for which the GI50 is below 1 µM.

Regarding `CN1C[C@@H]2C[C@H]1CN2c1ccc(Nc2nccc(-c3cnc4[nH]ccc4c3)n2)cc1F` [compound 23, 4-(1H-pyrrolo[2,3-b]pyridin-5-yl)-N-(3-fluoro-4-((1S,4S)-5-methyl-2,5-diazabicyclo[2.2.1]heptan-2-yl)phenyl)pyrimidin-2-amine], the GI50 was below 1 µM.

Regarding `Cc1cc(Nc2nccc(-c3ccc(C#N)nc3)n2)ccc1N1C2CCC1CC2` [compound 112, 4-(6-cyanopyridin-3-yl)-N-(3-methyl-4-(7-azabicyclo[2.2.1]heptan-7-yl)phenyl)pyrimidin-2-amine], the GI50 was 1 to 10 µM.

As to `CN(C)c1ccc(-c2ccnc(Nc3ccc(N4C[C@@H]5C[C@H]4CN5C)c(F)c3)n2)cc1` [compound 15, 4-(4-(N,N-dimethylamino)phenyl)-N-(3-fluoro-4-((1S,4S)-5-methyl-2,5-diazabicyclo[2.2.1]heptan-2-yl)phenyl)pyrimidin-2-amine], the GI50 is 1 to 10 µM.

For the compound `CN1C[C@@H]2C[C@H]1CN2c1ccc(Nc2nccc(-c3ccc(NS(C)(=O)=O)cc3)n2)cc1F` [compound 135, 4-(4-(methylsulfonylamino)phenyl)-N-(3-fluoro-4-((1S,4S)-5-methyl-2,5-diazabicyclo[2.2.1]heptan-2-yl)phenyl)pyrimidin-2-amine], the GI50 is below 1 µM.

For the compound `CN1C[C@@H]2C[C@H]1CN2c1ccc(Nc2nccc(-c3cnc4c(c3)OC(C)(C)C(=O)N4)n2)cc1` [compound 137, 4-(2,2-dimethyl-3-oxo-3,4-dihydro-2H-pyrido[3,2-b][1,4]oxazin-7-yl)-N-(4-((1S,4S)-5-methyl-2,5-diazabicyclo[2.2.1]heptan-2-yl)phenyl)pyrimidin-2-amine], the GI50 was below 1 µM.

As for `CN1C[C@@H]2C[C@H]1CN2c1ccc(Nc2nccc(-c3ccnc(N4CCOCC4)c3F)n2)cc1F` [compound 39, 4-(3-fluoro-2-(morpholin-4-yl)pyridin-4-yl)-N-(3-fluoro-4-((1S,4S)-5-methyl-2,5-diazabicyclo[2.2.1]heptan-2-yl)phenyl)pyrimidin-2-amine], the GI50 is 1 to 10 µM.

As to `Cc1cc(Nc2nccc(-c3cnc4[nH]ccc4c3)n2)ccc1N1C[C@@H]2C[C@H]1CN2C` [compound 22, 4-(1H-pyrrolo[2,3-b]pyridin-5-yl)-N-(3-methyl-4-((1S,4S)-5-methyl-2,5-diazabicyclo[2.2.1]heptan-2-yl)phenyl)pyrimidin-2-amine], the GI50 is below 1 µM.

As to `Cc1cc(Nc2nccc(-c3ccc(N4CCOCC4)nc3)n2)ccc1N1C2CCC1CC2` [compound 110, 4-(6-(morpholin-4-yl)pyridin-3-yl)-N-(3-methyl-4-(7-azabicyclo[2.2.1]heptan-7-yl)phenyl)pyrimidin-2-amine], the GI50 is 1 to 10 µM.

In the case of `Cc1cc(Nc2ncc(C)c(-c3ccc(N(C)C)nc3)n2)ccc1N1C[C@@H]2C[C@H]1CN2C` [compound 2, 4-(6-(N,N-dimethylamino)pyridin-3-yl)-5-methyl-N-(3-methyl-4-((1S,4S)-5-methyl-2,5-diazabicyclo[2.2.1]heptan-2-yl)phenyl)pyrimidin-2-amine], the GI50 is below 1 µM.

As to `Cc1cc(Nc2nccc(-c3cnc(N4CCOCC4)nc3)n2)ccc1N1C[C@@H]2C[C@H]1CN2C` [compound 41, 4-(2-(morpholin-4-yl)pyrimidin-5-yl)-N-(3-methyl-4-((1S,4S)-5-methyl-2,5-diazabicyclo[2.2.1]heptan-2-yl)phenyl)pyrimidin-2-amine], the GI50 is below 1 µM.

Staying with this assay, now noted: inhibition of JAK2 activity, proliferation of Ba/F3 V617F cells, read-out: IC50 (the source's name).
Regarding `CN(C)c1ccc(-c2ccnc(Nc3ccc(N4C[C@@H]5C[C@H]4CN5C)nc3)n2)cc1` [compound 56, 4-(4-(dimethylamino)phenyl)-N-(6-((1S,4S)-5-methyl-2,5-diazabicyclo[2.2.1]heptan-2-yl)pyridin-3-yl)pyrimidin-2-amine], the GI50 is 1 to 10 µM.

Consider `Cc1cc(-c2ccnc(Nc3cnc(N4C[C@@H]5C[C@H]4CN5C)c(C)c3)n2)cnc1N1CCOCC1` [compound 64, 4-(5-methyl-6-(morpholin-4-yl)pyridin-3-yl)-N-(5-methyl-6-((1S,4S)-5-methyl-2,5-diazabicyclo[2.2.1]heptan-2-yl)pyridin-3-yl)pyrimidin-2-amine], for which the GI50 was below 1 µM.
